One test concerns the target Activated CDC42 kinase 1 (Homo sapiens, UniProt Q07912). Put plainly: Binding affinity to wild-type human partial length TNK2 (S159 to D474 residues) expressed in bacterial expression system by Kinomescan method.
The nature of test [1]: cells. In kind it is functional, cell-based. The settings on record: Homo sapiens, UCH2, 72 h.
Description: Antiproliferative activity against human UCH2 cells measured after 72 hrs by alamar blue assay
The target of test [2] is Proto-oncogene tyrosine-protein kinase receptor Ret (Homo sapiens, UniProt P07949). Nature of the test: Binding affinity to wild-type human partial length RET (E713 to D1014 residues) expressed in bacterial expression system by Kinomescan method.
The target in test [3] is Tyrosine-protein kinase ABL2 (Homo sapiens, UniProt P42684). Nature of the test: Binding affinity to wild-type human ABL2 (A248 to G542 residues) expressed in bacterial expression system by Kinomescan method.
For test [4], the target named is Serine/threonine-protein kinase SIK2 (Homo sapiens, UniProt Q9H0K1). Put plainly: Binding affinity to wild-type human full length SIK2 (M1 to N926 residues) expressed in bacterial expression system by Kinomescan method.
Test [5] concerns the target Epidermal growth factor receptor (Homo sapiens, UniProt P00533).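 Note: KINOMEscan competition binding with recombinant partial wild-type human EGFR (residues R669–V1011) produced in bacteria.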
Description: Binding affinity to wild-type human partial length EGFR (R669 to V1011 residues) expressed in bacterial expression system by Kinomescan method
The nature of test [6]: cells. In kind it is functional, cell-based. The note with it: Homo sapiens, UCH1, 72 h.
Description: Antiproliferative activity against human UCH1 cells measured after 72 hrs by alamar blue assay
The species named for the next test is Homo sapiens. Nature of the test: Selectivity ratio of Kd for wild-type human partial length EGFR (R669 to V1011 residues) expressed in bacterial expression system to kd for wild-type human partial length GAK (G13 to Y338 residues) expressed in bacterial expression system.
Test [7] addresses Tyrosine-protein kinase ABL1 (Homo sapiens, UniProt P00519). Nature of the test: Binding affinity to wild-type human ABL1 (S229 to K512 residues) expressed in mammalian expression system by Kinomescan method.
Test [8] deals with T1, Serine/threonine-protein kinase D2 (Homo sapiens, UniProt Q9BZL6).
T1 sequence (Q9BZL6 whole entry): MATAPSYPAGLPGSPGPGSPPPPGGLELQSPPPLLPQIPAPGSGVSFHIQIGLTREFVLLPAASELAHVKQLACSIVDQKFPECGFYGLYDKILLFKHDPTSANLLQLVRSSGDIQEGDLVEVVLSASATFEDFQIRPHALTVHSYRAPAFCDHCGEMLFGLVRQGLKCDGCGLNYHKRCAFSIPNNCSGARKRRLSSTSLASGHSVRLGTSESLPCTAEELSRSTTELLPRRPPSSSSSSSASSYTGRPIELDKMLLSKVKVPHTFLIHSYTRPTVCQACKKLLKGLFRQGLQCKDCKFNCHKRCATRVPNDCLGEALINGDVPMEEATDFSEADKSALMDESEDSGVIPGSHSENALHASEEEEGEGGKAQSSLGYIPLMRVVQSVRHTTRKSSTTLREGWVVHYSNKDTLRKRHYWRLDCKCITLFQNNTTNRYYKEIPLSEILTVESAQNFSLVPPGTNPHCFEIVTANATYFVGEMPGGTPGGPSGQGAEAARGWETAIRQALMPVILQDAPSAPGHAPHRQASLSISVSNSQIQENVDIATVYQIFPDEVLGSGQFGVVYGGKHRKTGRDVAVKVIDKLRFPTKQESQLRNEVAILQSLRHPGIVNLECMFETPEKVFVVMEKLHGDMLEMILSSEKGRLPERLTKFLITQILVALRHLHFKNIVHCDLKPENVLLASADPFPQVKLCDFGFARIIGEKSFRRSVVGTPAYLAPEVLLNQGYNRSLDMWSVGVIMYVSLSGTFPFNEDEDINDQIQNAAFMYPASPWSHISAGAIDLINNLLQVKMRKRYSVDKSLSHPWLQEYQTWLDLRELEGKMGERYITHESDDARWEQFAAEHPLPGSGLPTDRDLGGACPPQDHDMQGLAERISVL
Put plainly: Binding affinity to wild-type human partial length PRKD2 (A519 to E838 residues) expressed in bacterial expression system by Kinomescan method.

The structures appear in SMILES notation.

Tyrosine-protein kinase ABL2, sequence (P42684 whole entry, the tested form may be a part): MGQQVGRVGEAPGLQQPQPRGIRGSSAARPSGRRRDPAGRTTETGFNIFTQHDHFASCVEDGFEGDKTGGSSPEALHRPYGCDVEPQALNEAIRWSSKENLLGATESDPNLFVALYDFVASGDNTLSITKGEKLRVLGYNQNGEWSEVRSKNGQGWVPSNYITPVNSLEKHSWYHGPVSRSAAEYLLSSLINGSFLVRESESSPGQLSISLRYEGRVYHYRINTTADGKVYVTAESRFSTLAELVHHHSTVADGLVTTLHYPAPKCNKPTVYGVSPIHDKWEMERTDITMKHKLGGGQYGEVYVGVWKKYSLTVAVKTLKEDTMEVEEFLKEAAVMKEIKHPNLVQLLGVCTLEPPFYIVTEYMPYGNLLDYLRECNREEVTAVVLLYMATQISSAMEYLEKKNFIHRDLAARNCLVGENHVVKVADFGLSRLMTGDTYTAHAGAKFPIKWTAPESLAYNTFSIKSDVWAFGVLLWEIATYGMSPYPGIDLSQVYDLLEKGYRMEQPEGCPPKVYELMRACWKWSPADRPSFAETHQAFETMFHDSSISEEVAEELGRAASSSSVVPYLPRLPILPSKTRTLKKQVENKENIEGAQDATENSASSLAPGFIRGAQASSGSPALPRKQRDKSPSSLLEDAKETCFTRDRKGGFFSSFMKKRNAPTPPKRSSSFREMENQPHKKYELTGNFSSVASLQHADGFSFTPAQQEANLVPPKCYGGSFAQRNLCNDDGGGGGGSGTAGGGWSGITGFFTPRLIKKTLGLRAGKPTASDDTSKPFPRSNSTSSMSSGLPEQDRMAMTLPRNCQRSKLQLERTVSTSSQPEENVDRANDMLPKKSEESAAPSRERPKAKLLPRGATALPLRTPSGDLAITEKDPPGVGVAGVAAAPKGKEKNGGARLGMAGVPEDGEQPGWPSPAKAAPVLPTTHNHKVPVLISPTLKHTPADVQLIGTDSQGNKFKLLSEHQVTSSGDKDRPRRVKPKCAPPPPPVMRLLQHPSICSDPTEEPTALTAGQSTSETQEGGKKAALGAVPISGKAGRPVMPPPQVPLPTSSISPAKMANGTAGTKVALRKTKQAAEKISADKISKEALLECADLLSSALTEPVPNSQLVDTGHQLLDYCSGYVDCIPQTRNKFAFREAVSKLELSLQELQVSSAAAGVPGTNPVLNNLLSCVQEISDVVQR
Serine/threonine-protein kinase SIK2, sequence (Q9H0K1 whole entry, the tested form may be a part): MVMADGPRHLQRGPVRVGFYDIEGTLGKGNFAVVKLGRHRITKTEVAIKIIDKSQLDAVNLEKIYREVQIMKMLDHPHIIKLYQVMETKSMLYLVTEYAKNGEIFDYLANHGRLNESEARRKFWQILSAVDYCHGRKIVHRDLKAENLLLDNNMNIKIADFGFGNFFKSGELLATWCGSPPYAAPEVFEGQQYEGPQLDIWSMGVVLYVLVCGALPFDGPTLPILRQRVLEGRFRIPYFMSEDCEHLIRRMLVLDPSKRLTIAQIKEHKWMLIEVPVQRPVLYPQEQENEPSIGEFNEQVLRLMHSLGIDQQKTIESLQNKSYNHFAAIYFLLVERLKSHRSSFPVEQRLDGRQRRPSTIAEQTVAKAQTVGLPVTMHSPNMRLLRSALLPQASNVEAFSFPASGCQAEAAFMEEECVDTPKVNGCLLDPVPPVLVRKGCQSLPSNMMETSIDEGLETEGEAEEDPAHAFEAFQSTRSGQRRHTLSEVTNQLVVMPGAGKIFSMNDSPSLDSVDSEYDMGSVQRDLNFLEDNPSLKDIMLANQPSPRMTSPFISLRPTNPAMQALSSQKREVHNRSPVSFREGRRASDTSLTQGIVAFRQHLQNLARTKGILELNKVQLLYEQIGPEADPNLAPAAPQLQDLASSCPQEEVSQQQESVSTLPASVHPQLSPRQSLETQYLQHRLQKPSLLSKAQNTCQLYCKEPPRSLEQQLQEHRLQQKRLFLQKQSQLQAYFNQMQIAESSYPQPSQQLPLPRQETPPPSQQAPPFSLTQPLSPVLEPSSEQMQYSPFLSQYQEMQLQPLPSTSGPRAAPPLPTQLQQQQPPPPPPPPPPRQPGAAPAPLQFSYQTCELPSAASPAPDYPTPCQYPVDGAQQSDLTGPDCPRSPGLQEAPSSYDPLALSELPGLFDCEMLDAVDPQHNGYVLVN
Proto-oncogene tyrosine-protein kinase receptor Ret, sequence (P07949 whole entry, the tested form may be a part): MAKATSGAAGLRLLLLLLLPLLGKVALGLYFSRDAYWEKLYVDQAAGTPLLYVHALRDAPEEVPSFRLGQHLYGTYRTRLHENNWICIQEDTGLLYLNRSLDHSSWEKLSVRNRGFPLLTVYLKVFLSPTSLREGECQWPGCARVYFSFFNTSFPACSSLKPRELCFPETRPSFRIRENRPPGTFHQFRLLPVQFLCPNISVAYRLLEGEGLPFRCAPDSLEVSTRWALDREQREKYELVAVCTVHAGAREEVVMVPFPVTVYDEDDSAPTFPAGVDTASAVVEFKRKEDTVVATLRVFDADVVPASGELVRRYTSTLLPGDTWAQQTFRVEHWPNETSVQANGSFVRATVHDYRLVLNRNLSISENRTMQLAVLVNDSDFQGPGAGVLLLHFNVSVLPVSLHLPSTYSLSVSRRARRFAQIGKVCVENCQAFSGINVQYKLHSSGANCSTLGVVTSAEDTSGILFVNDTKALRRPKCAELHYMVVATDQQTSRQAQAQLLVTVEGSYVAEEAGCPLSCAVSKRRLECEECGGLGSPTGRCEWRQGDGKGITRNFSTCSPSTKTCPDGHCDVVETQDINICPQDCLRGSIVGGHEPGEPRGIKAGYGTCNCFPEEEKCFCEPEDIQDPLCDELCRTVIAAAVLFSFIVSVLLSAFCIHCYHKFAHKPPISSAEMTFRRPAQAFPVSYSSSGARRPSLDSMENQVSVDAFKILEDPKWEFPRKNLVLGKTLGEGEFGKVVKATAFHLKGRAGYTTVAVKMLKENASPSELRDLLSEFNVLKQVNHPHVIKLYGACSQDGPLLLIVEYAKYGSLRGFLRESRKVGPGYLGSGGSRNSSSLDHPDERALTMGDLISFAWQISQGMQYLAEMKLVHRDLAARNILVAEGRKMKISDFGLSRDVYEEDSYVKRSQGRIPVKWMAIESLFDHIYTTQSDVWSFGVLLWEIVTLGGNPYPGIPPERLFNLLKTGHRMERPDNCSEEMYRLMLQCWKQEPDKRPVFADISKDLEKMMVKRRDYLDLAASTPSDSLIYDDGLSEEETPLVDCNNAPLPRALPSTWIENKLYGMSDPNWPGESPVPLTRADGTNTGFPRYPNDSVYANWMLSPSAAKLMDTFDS
Activated CDC42 kinase 1, sequence (Q07912 whole entry, the tested form may be a part): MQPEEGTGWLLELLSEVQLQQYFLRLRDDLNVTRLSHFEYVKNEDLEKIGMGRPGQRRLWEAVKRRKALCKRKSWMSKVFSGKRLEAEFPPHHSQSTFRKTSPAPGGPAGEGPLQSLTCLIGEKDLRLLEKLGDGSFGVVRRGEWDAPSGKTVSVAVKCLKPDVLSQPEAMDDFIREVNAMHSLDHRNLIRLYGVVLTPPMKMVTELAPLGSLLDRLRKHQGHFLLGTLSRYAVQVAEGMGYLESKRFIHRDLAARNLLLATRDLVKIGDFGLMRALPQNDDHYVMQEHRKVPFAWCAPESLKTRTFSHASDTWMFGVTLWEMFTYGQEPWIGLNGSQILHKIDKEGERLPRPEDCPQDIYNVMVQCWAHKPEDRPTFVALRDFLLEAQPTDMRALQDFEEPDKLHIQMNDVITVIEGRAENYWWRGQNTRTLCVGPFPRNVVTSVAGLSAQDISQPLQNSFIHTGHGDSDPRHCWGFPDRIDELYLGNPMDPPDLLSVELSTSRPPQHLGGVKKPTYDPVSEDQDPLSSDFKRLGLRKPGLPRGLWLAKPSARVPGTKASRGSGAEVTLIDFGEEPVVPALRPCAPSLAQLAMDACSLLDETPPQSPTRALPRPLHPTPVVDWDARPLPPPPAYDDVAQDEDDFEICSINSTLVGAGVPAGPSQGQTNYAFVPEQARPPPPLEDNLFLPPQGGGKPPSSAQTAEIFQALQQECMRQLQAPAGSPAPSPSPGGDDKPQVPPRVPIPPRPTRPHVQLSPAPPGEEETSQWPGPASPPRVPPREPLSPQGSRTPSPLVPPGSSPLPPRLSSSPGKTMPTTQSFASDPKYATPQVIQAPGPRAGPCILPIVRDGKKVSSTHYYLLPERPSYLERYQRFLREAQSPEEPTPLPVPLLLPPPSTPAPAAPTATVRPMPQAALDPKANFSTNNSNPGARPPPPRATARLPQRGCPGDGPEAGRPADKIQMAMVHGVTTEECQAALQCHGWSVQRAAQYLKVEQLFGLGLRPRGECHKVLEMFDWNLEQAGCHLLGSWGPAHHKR

One may read the Kd as the concentration at which binding is half-saturated. One may read the IC50 as the concentration needed to halve the response being measured. Higher therefore signals weaker potency. As to `COc1cccc(Nc2ncnn3ccc(CN4CC[C@@H](N)[C@H](O)C4)c23)c1` [BMS-690514], the Kd at Activated CDC42 kinase 1 was less than 0.225 µM; in test [2], less than 0.225 µM; in [3], less than 0.225 µM; in test [4], less than 0.225 µM; in test [5] it was 0.22 µM; in test [7], less than 0.225 µM. In test [8], this molecule yielded a Kd of less than 0.225 µM. Further, the IC50 was greater than 50 µM in the test “cells [1]” and 0.53 µM in the test “cells [6]”. Further, in the test filed under Homo sapiens, the Selectivity ratio was greater than 700.

The values are drawn from ChEMBL document CHEMBL4393671, “Design of a Cyclin G Associated Kinase (GAK)/Epidermal Growth Factor Receptor (EGFR) Inhibitor Set to Interrogate the Relationship of EGFR and GAK in Chordoma” (J Med Chem, 2019).
